Reference: patent publication US20180022780A1, “STABILIZATION ADRENOMEDULLIN DERIVATIVES AND USE THEREOF” (priority 2014, published 2018)
Bridge positions count the residues as written; N and C are the ends. Square brackets hold non-standard residues; d marks the D form. Peptide text beside a SMILES is read from it. * marks the point of attachment. X1 = CN(C)c1ccc2c(c1)Oc1cc(N(C)C)ccc1C21OC(=O)c2ccc(C(=O)*)cc21; Palmitoyl = CCCCCCCCCCCCCCCC(=O)*; NMeI = CC[C@H](C)[C@H](NC)C(=O)O; NMeK = CN[C@@H](CCCCN)C(=O)O; Dab = NCC[C@H](N)C(=O)O; Dap = NC[C@H](N)C(=O)O

Legend:
[1] = Stability in human blood plasma (TAM-labeled analogues); assay type: in vitro ADME; settings: 10E-5 M, 37° C., two phase decay, N-terminally TAM-labeled analogues, read-out: HalfLife (Slow) (converted)
Text: FIG. 3: Stability of peptides in plasma calculated with GraphPad Prism 5 (GraphPad Software) using two phase decay analysis for the determination of half-life (slow) (Test 1e). N-terminally 6-carboxytetramethylrhodamine-(TAM)-labeled analogues of Control: TAM[G^14]ADM(14-52); Example 18: TAM[K^14(PAM), (Dpr^16, E^21)lac]ADM(14-52); and Example 27: TAM[K^14(PAM), (Dpr^16, E^21)lac, Nα-Me-K^46]ADM(14-52).
The stability of the peptides was investigated using N-terminally 6-carboxytetramethylrhodamine-(TAM)-labeled analogues.
Fluorescently labeled ADM analogues were prepared by using solid phase peptide synthesis (SPPS) as described before (general method for peptide synthesis). Manual coupling of 6-carboxytetramethylrhodamine (TAM) to the N-terminus of the peptides was carried out with a 3-fold molar excess of the fluorescence dye, 2-(1H-benzotriazol-1-yl)-1,1,3,3-tetramethyluronium hexafluorophosphate (HBTU) and N,N-Diisopropylethylamine (DIPEA) in DMF under constant shaking for 24 h the resin as described recently (Bohme D., Beck-Sickinger A. G. ChemMedChem 2015, 10: 804-14). The identity of the peptides was confirmed by mass spectrometry with an MALDI-MS (UltraflexIII, Bruker) and an ESI-MS (HCT, Bruker). The observed masses were in correspondence to the calculated masses.
The peptides were dissolved in 1.5 ml of human blood plasma to a concentration of 10E-5 M and incubated at 37° C. under constant shaking. […] The samples were analyzed by RP-HPLC using a Varian VariTide RPC column (particle size 6 μm; pore size 200 Å; 250×4.6 mm) with linear gradients of 0.1% TFA in water and 0.08% TFA in ACN; fluorescence emission was detected at λ=573 nm. The percentage of intact peptide was determined by peak integration. […] The stability of the peptides was calculated with GraphPad Prism 5 (GraphPad Software) using a two phase exponential decay function for the determination of slow-decay phase half-lives (ln(2)/Kslow; Kslow: rate constant of slow part of exponential decay) (Table 3 and FIG. 3).

[2] = biological target: T1, human adrenomedullin-receptor (Homo sapiens, UniProt O60895+Q16602); assay: Tests on a recombinant adrenomedullin-receptor reporter cell (CHO, aequorin luminescence); assay type: cell-based; settings: Table 1, CHO cell line carrying the human adrenomedullin-receptor
T1 construct: expressed in transfected cells; host or cells: CHO (Chinese hamster ovary) recombinant reporter cell line with aequorin
T1 sequence (Q16602 23-461): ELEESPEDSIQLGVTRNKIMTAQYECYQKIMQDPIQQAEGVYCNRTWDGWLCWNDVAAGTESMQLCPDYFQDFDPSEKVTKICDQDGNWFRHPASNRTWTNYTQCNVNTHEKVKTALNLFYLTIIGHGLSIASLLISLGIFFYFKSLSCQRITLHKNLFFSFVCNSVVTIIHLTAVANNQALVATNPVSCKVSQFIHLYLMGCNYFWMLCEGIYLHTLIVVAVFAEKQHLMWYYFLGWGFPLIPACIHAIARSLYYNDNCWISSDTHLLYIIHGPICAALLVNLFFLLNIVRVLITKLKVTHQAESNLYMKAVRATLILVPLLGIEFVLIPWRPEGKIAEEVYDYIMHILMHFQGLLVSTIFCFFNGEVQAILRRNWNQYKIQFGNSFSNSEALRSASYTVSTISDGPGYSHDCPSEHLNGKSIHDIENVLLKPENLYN
T1 sequence (O60895 43-175): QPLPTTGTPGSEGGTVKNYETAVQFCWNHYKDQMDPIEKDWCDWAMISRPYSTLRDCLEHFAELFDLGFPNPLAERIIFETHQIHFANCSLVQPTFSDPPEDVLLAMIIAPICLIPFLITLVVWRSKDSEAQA
Protocol: Activation of the receptor by ligands was measured by aequorin luminescence. Construction of the cell line and measurement procedure has been described in detail [Wunder F., Rebmann A., Geerts A, and Kalthof B., Mol Pharmacol, 73, 1235-1243 (2008)]. In brief: Cells were seeded on opaque 384-well microtiter plates at a density of 4000 cells/well and were grown for 24 h. After removal of culture medium, cells were loaded for 3 h with 0.6 μg/ml coelenterazine in Ca^2+-free Tyrode solution (130 mM sodium chloride, 5 mM potassium chloride, 20 mM HEPES (4-(2-hydroxyethyl)-1-piperazineethanesulfonic acid), 1 mM magnesium chloride, and 4.8 mM sodium hydrogen carbonate, pH 7.4) supplemented with 0.2 mM 3-Isobutyl-1-methylxanthine (IBMX) in a cell culture incubator. Examples were added for 6 min in calcium^2+-free Tyrode solution containing 0.1% bovine serum albumin. Immediately before adding calcium^2+ to a final concentration of 3 mM measurement of the aequorin luminescence was started by use of a suitable luminometer. Luminescence was measured for 60 s. In a typical experiment compounds were tested in a concentration range of 1×10^−13 to 3×10^−6 M.

[3] = biological target: T2, CLR fused to EYFP and RAMP2 fused to ECFP (Homo sapiens, UniProt O60895+Q16602); assay: cAMP assay (CRE luciferase reporter, HEK-293 cells transiently co-transfected with CLR and RAMP2); assay type: cell-based; settings: Table 2, cAMP assay; HEK-293, CLR/RAMP2, CRE luciferase, 3 h stimulation, normalized to [G^14]ADM(14-52)
T2 construct: EYFP; ECFP; expressed in transfected cells; host or cells: HEK-293 cells, transient co-transfection
T2 sequence (Q16602 23-461): as the sequence (Q16602 23-461) above
T2 sequence (O60895 43-175): as the sequence (O60895 43-175) above
Outline: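 HEK-293 cells transiently co-transfected with CLR-EYFP, RAMP2-ECFP and a CRE-luc2P luciferase reporter were stimulated with ligands (eight concentrations, triplicate) for 3 h at 37 °C. Luminescence was corrected to 5 µM forskolin, normalized to [G^14]ADM(14-52) standard, and fitted by non-linear regression to dose-response curves.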

half-life at 0.0001 M [1] [h]	EC50 [2] [nM]	EC50 [3] [nM]	Structure (SMILES)
> 96	–	–	CCCCCCCCCCCCCCCC(=O)NCCCC[C@H](NC(=O)c1ccc2c(c1)C1(OC2=O)c2ccc(N(C)C)cc2Oc2cc(N(C)C)ccc21)C(=O)NCC(=O)N[C@H]1CNC(=O)CC[C@@H](C(=O)N[C@H](C(=O)N[C@H](C(=O)N[C@@H](CCC(N)=O)C(=O)N[C@@H](CCCCN)C(=O)N[C@@H](CC(C)C)C(=O)N[C@@H](C)C(=O)N[C@@H](Cc2c[nH]cn2)C(=O)N[C@@H](CCC(N)=O)C(=O)N[C@H](C(=O)N[C@@H](Cc2ccc(O)cc2)C(=O)N[C@@H](CCC(N)=O)C(=O)N[C@@H](Cc2ccccc2)C(=O)N[C@H](C(=O)N[C@@H](CC(=O)O)C(=O)N[C@@H](CCCCN)C(=O)N[C@@H](CC(=O)O)C(=O)N[C@@H](CCCCN)C(=O)N[C@@H](CC(=O)O)C(=O)N[C@@H](CC(N)=O)C(=O)N[C@H](C(=O)N[C@@H](C)C(=O)N2CCC[C@H]2C(=O)N[C@@H](CCCNC(=N)N)C(=O)N[C@@H](CO)C(=O)N(C)[C@@H](CCCCN)C(=O)N[C@H](C(=O)N[C@@H](CO)C(=O)N2CCC[C@H]2C(=O)N[C@@H](CCC(N)=O)C(=O)NCC(=O)N[C@@H](Cc2ccc(O)cc2)C(N)=O)[C@@H](C)CC)C(C)C)[C@@H](C)O)[C@@H](C)CC)C(C)C)[C@@H](C)O)NC(=O)[C@H]([C@@H](C)O)NC(=O)CNC(=O)[C@H](Cc2ccccc2)NC(=O)[C@H](CCCNC(=N)N)NC1=O [TAM-27, TAM[K^14(PAM), (Dpr^16, E^21)lac, Nα-Me-K^46]ADM(14-52)] (X1-K(Palmitoyl)G[Dap]RFGTETVQKLAHQIYQFTDKDKDNVAPRS[NMeK]ISPQGY-NH2; lactam 3-8)
> 96	–	–	CCCCCCCCCCCCCCCC(=O)NCCCC[C@H](NC(=O)c1ccc2c(c1)C1(OC2=O)c2ccc(N(C)C)cc2Oc2cc(N(C)C)ccc21)C(=O)NCC(=O)N[C@H]1CNC(=O)CC[C@@H](C(=O)N[C@H](C(=O)N[C@H](C(=O)N[C@@H](CCC(N)=O)C(=O)N[C@@H](CCCCN)C(=O)N[C@@H](CC(C)C)C(=O)N[C@@H](C)C(=O)N[C@@H](Cc2c[nH]cn2)C(=O)N[C@@H](CCC(N)=O)C(=O)N[C@H](C(=O)N[C@@H](Cc2ccc(O)cc2)C(=O)N[C@@H](CCC(N)=O)C(=O)N[C@@H](Cc2ccccc2)C(=O)N[C@H](C(=O)N[C@@H](CC(=O)O)C(=O)N[C@@H](CCCCN)C(=O)N[C@@H](CC(=O)O)C(=O)N[C@@H](CCCCN)C(=O)N[C@@H](CC(=O)O)C(=O)N[C@@H](CC(N)=O)C(=O)N[C@H](C(=O)N[C@@H](C)C(=O)N2CCC[C@H]2C(=O)N[C@@H](CCCNC(=N)N)C(=O)N[C@@H](CO)C(=O)N[C@@H](CCCCN)C(=O)N[C@H](C(=O)N[C@@H](CO)C(=O)N2CCC[C@H]2C(=O)N[C@@H](CCC(N)=O)C(=O)NCC(=O)N[C@@H](Cc2ccc(O)cc2)C(N)=O)[C@@H](C)CC)C(C)C)[C@@H](C)O)[C@@H](C)CC)C(C)C)[C@@H](C)O)NC(=O)[C@H]([C@@H](C)O)NC(=O)CNC(=O)[C@H](Cc2ccccc2)NC(=O)[C@H](CCCNC(=N)N)NC1=O [TAM-18, TAM[K^14(PAM), (Dpr^16, E^21)lac]ADM(14-52)] (X1-K(Palmitoyl)G[Dap]RFGTETVQKLAHQIYQFTDKDKDNVAPRSKISPQGY-NH2; lactam 3-8)
–	> 1000	112	CC[C@H](C)[C@H](NC(=O)[C@H](CCC(N)=O)NC(=O)[C@H](Cc1c[nH]cn1)NC(=O)[C@H](C)NC(=O)[C@H](CC(C)C)NC(=O)[C@H](CCCCN)NC(=O)[C@H](CCC(N)=O)NC(=O)[C@@H](NC(=O)[C@@H](NC(=O)[C@@H]1CC(=O)NCC[C@H](NC(=O)CNC(=O)CN)C(=O)N[C@@H](CCCNC(=N)N)C(=O)N[C@@H](Cc2ccccc2)C(=O)NCC(=O)N[C@@H]([C@@H](C)O)C(=O)N1)[C@@H](C)O)C(C)C)C(=O)N[C@@H](Cc1ccc(O)cc1)C(=O)N[C@@H](CCC(N)=O)C(=O)N[C@@H](Cc1ccccc1)C(=O)N[C@H](C(=O)N[C@@H](CC(=O)O)C(=O)N[C@@H](CCCCN)C(=O)N[C@@H](CC(=O)O)C(=O)N[C@@H](CCCCN)C(=O)N[C@@H](CC(=O)O)C(=O)N[C@@H](CC(N)=O)C(=O)N[C@H](C(=O)N[C@@H](C)C(=O)N1CCC[C@H]1C(=O)N[C@@H](CCCNC(=N)N)C(=O)N[C@@H](CO)C(=O)N[C@@H](CCCCN)C(=O)N[C@H](C(=O)N[C@@H](CO)C(=O)N1CCC[C@H]1C(=O)N[C@@H](CCC(N)=O)C(=O)NCC(=O)N[C@@H](Cc1ccc(O)cc1)C(N)=O)[C@@H](C)CC)C(C)C)[C@@H](C)O [Example 5, ((2S,5S,11S,14S,20S)-20-(2-(2-aminoacetamido)acetamido)-5-benzyl-2-(3-guanidinopropyl)-11-((R)-1-hydroxyethyl)-3,6,9,12,16,21-hexaoxo-1,4,7,10,13,17-hexaazacyclohenicosane-14-carbonyl)-L-threonyl-ADM(22-52)] (H-GG[Dab]RFGTDTVQKLAHQIYQFTDKDKDNVAPRSKISPQGY-NH2; lactam 3-8)
–	32	150	CCCCCCCCCCCCCCCC(=O)NCCCC[C@H](N)C(=O)NCC(=O)N[C@H]1CCC(=O)NCCCC[C@@H](C(=O)N[C@H](C(=O)N[C@H](C(=O)N[C@@H](CCC(N)=O)C(=O)N[C@@H](CCCCN)C(=O)N[C@@H](CC(C)C)C(=O)N[C@@H](C)C(=O)N[C@@H](Cc2c[nH]cn2)C(=O)N[C@@H](CCC(N)=O)C(=O)N[C@H](C(=O)N[C@@H](Cc2ccc(O)cc2)C(=O)N[C@@H](CCC(N)=O)C(=O)N[C@@H](Cc2ccccc2)C(=O)N[C@H](C(=O)N[C@@H](CC(=O)O)C(=O)N[C@@H](CCCCN)C(=O)N[C@@H](CC(=O)O)C(=O)N[C@@H](CCCCN)C(=O)N[C@@H](CC(=O)O)C(=O)N[C@@H](CC(N)=O)C(=O)N[C@H](C(=O)N[C@@H](C)C(=O)N2CCC[C@H]2C(=O)N[C@@H](CCCNC(=N)N)C(=O)N[C@@H](CO)C(=O)N[C@@H](CCCCN)C(=O)N(C)[C@H](C(=O)N[C@@H](CO)C(=O)N2CCC[C@H]2C(=O)N[C@@H](CCC(N)=O)C(=O)NCC(=O)N[C@@H](Cc2ccc(O)cc2)C(N)=O)[C@@H](C)CC)C(C)C)[C@@H](C)O)[C@@H](C)CC)C(C)C)[C@@H](C)O)NC(=O)[C@H]([C@@H](C)O)NC(=O)CNC(=O)[C@H](Cc2ccccc2)NC(=O)[C@H](CCCNC(=N)N)NC1=O [Example 14, ((2S,5S,11S,14S,23S)-23-(2-((S)-2-amino-6-palmitamidohexanamido)acetamido)-5-benzyl-2-(3-guanidinopropyl)-11-((R)-1-hydroxyethyl)-3,6,9,12,20,24-hexaoxo-1,4,7,10,13,19-hexaazacyclotetracosane-14-carbonyl)-L-threonyl-[N-Me-I^47]ADM(22-52)] (H-K(Palmitoyl)GERFGTKTVQKLAHQIYQFTDKDKDNVAPRSK[NMeI]SPQGY-NH2; lactam 3-8)
